Reference: PubChem BioAssay (NCI)
Several values for one entry are separate records, joined by “and”; a condition that tells them apart may be missing. Equal entries are not always repeated.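 All cell lines were grown in 96-well plates and treated with compound for 48 hours. GI50 = concentration required for 50% inhibition of growth. TGI is the concentration that stops growth completely.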

Tests used:
Assay in all cases: NCI anticancer screen, dose series, 48 h
COLO 205 colon = test system: COLO 205 colon
EKVX NSCLC = test system: EKVX NSCLC
HS 578T breast = test system: HS 578T breast
MALME-3M melanoma = test system: MALME-3M melanoma
MDA-MB-231 breast = test system: MDA-MB-231 breast
NCI-H23 lung = test system: NCI-H23 lung
PC-3 prostate = test system: PC-3 prostate
RPMI-8226 leukemia = test system: RPMI-8226 leukemia
SN12C renal = test system: SN12C renal
SNB-75 CNS = test system: SNB-75 CNS

SMILES	GI50 (COLO 205 colon)	TGI (COLO 205 colon)	GI50 (EKVX NSCLC)	TGI (EKVX NSCLC)	GI50 (HS 578T breast)	TGI (HS 578T breast)	GI50 (MALME-3M melanoma)	TGI (MALME-3M melanoma)	GI50 (MDA-MB-231 breast)	TGI (MDA-MB-231 breast)	GI50 (NCI-H23 lung)	TGI (NCI-H23 lung)	GI50 (PC-3 prostate)	TGI (PC-3 prostate)	GI50 (RPMI-8226 leukemia)	GI50 (SN12C renal)	TGI (SN12C renal)	GI50 (SNB-75 CNS)	TGI (SNB-75 CNS)	TGI (RPMI-8226 leukemia)
CC(C)=CCC(OC(=O)C=C(C)C)C1=CC(=O)c2c(O)ccc(O)c2C1=O (centres undefined)	0.751 µM	2.12 µM and 1.37 µM	2.28 µM	6.2 µM and 2.2 µM	14.3 µM	65.2 µM	0.694 µM	3.09 µM and 1.07 µM	1.63 µM	3.89 µM	2.46 µM and 1.06 µM	7.06 µM and 2.96 µM	1.55 µM	8.74 µM	0.724 µM	1.9 µM	3.94 µM and 2.92 µM	3.87 µM	16.3 µM and 13.7 µM	
O=P1(S)OC[C@H]2O[C@@H]3[C@H](F)[C@@H]2OP(O)(=S)OC[C@H]2O[C@H]([C@H](F)[C@@H]2O1)n1cnc2c(ncnc21)NC/C=C/CNc1ncnc2c1ncn23 (some centres undefined)	> 100 µM	> 100 µM	> 100 µM	> 100 µM	> 100 µM	> 100 µM	> 100 µM	> 100 µM	> 100 µM	> 100 µM	> 100 µM	> 100 µM	> 100 µM	> 100 µM	> 100 µM	> 100 µM	> 100 µM	> 79.9 µM	> 100 µM	> 100 µM
CC1=Nc2ccccc2/C1=C\c1c(C)[nH]c2ccccc12		53.2 µM		29.7 µM		47.2 µM		30.5 µM		33.3 µM		38.6 µM		39.2 µM			72.5 µM		71.5 µM	88.1 µM
COc1ccc(C(=O)NNc2nc(Cl)nc(N3CCN(C(c4ccccc4)c4ccccc4)CC3)n2)cc1	3.21 µM	13.4 µM	3.43 µM	14.8 µM	1.95 µM	4.76 µM	1.84 µM	3.64 µM	1.94 µM	3.68 µM	1.88 µM	4.02 µM	1.74 µM	3.59 µM	33.7 µM	1.71 µM	3.19 µM	1.65 µM	3.49 µM	> 100 µM
CC(C)Cc1ccc(C(C)CC2=CCC(CN(C)C)C2=O)cc1 (centres undefined)		6.77 µM		33.9 µM		40.6 µM		13.1 µM		22.5 µM		28.2 µM		28.4 µM			20 µM		29.5 µM	5.24 µM
CCOc1c(N=Nc2ccccc2Cl)c(-c2ccccc2)nn1C(=S)S		47.5 µM		> 100 µM		75.4 µM		95.2 µM		56.5 µM		> 100 µM		> 100 µM			34.8 µM		> 100 µM	
COc1ccc(C(O)c2cc3c(N)c(C(=O)Nc4cccc(Cl)c4)sc3nc2C)cc1 (centres undefined)	2.79 µM	25.2 µM	1.88 µM	> 86.9 µM	0.825 µM		2.48 µM	> 73.4 µM	1.41 µM	> 33.1 µM	1.82 µM	> 50.1 µM	1.56 µM	> 40.4 µM	3.21 µM	2.02 µM	> 72.7 µM	0.22 µM	16.6 µM	> 100 µM
CC(C)(C)OC(=O)NCCCn1c2c(c3ccccc3c1=O)C(=O)c1ccccc1-2	> 100 µM	> 100 µM	38.9 µM	> 100 µM	15.8 µM	71.6 µM	32.9 µM	> 100 µM	12.9 µM	48.8 µM	13.4 µM	28.8 µM	51.5 µM	> 100 µM		24.8 µM	> 100 µM			
C1CC2CN(CCCN3CCOCC3)C(C1)O2 (centres undefined)		> 100 µM		> 100 µM		> 100 µM		> 100 µM		> 100 µM		> 100 µM		> 100 µM			> 100 µM		> 100 µM	> 100 µM
Cc1ccc(S(=O)(=O)c2nc(-c3ccccc3)oc2S(C)=O)cc1 (centres undefined)	1.72 µM	3.56 µM	1.72 µM	3.4 µM	5.27 µM	40 µM	1.7 µM	3.47 µM	1.47 µM	2.87 µM	1.91 µM	3.97 µM	2.03 µM	4.45 µM	1.4 µM	1.68 µM	3.43 µM	2.69 µM	9.55 µM	4.13 µM
CCCCCCCCNCCC[C@@H](C)[C@H]1CC[C@H]2[C@@H]3[C@H](OCCCN)C[C@H]4C[C@H](OCCCN)CC[C@]4(C)[C@H]3C[C@H](OCCCN)[C@]12C	2.6 µM	7.77 µM	2.01 µM	6.65 µM	2.43 µM	5.59 µM			0.983 µM	7.11 µM	1.81 µM	5.4 µM	5.58 µM	> 49.3 µM	1.27 µM	1.21 µM	5.68 µM	2.52 µM	11.6 µM	3.49 µM
O=C1CC(c2[nH]nc3ccccc23)C(=O)N1c1ccccc1 (centres undefined)		> 100 µM		> 100 µM		> 100 µM		> 100 µM		> 100 µM		> 100 µM		> 100 µM			> 100 µM		> 100 µM	> 100 µM
C=C1C(=O)OC2CC(C)C3CC(O)OC(OCC)C3(C)CC12 (centres undefined)		33.5 µM		> 62.2 µM		72.8 µM		23.3 µM		34.8 µM		30.9 µM		45.9 µM			33.2 µM		50.8 µM	51 µM
Cc1cc(N=C2C=C(Br)C(=O)C(Br)=C2)cc(CN(CC(=O)O)CC(=O)O)c1O		> 100 µM		> 100 µM		> 100 µM		> 100 µM		> 100 µM		> 100 µM		> 100 µM			> 100 µM		> 100 µM	> 100 µM
COc1ncnc(S(=O)(=O)c2ccc(N=C3C(=O)N(CN4CCN(c5cc6c(cc5F)c(=O)c(C(=O)O)cn6C5CC5)CC4)c4ccc(Cl)cc43)cc2)c1OC	> 50 µM	> 50 µM	1.24 µM	> 50 µM	6.16 µM	> 50 µM			28.5 µM	> 50 µM	> 50 µM	> 50 µM	34.9 µM	> 50 µM	13.5 µM	30.4 µM	> 50 µM			> 50 µM
CCN(c1cc(-c2ccc(CN3CCOCC3)cc2)cc(C(=O)NCc2c(C)cc(C)[nH]c2=O)c1C)C1CCOCC1	18.1 µM	34.9 µM	33.6 µM	> 100 µM	22.2 µM	> 71.2 µM	14.4 µM	28.9 µM	20.4 µM	44.7 µM	59.4 µM	> 100 µM	32 µM	> 100 µM	20 µM	26.9 µM	> 64.5 µM	16.7 µM	> 91.9 µM	> 59.8 µM
COc1cc2c(cc1O)CC1c3c(cc(O)c(OC)c3-2)CCN1C (centres undefined)		> 100 µM		> 100 µM		> 100 µM		> 100 µM		> 100 µM		> 100 µM		> 100 µM			> 100 µM		> 100 µM	> 100 µM
O=c1/c(=C\c2ccc(F)cc2)sc2n1C(c1ccc(F)cc1)C1=C(N=2)c2ccc3ccccc3c2OCC1 (centres undefined)	> 100 µM	> 100 µM	> 100 µM	> 100 µM	> 100 µM	> 100 µM	> 100 µM	> 100 µM	> 100 µM	> 100 µM	> 100 µM	> 100 µM	> 52.8 µM	> 100 µM	> 100 µM	> 100 µM	> 100 µM	> 100 µM	> 100 µM	> 100 µM
O=C(Nc1ccc(-c2nc(-c3cccc(OCCN4CCOCC4)c3)c(-c3ccnc(Br)c3)[nH]2)cc1)c1ccccc1			2.01 µM	6.97 µM	0.267 µM	0.885 µM	1.55 µM	3.85 µM	2.84 µM	> 100 µM	2.47 µM	8.78 µM	2.36 µM	> 100 µM	0.407 µM	6.94 µM	> 100 µM	0.364 µM	2.76 µM	2.47 µM
S=c1nc(N/N=C/c2ccco2)c2cn[nH]c2[nH]1	29.5 µM	90.8 µM	51 µM	> 100 µM	42.5 µM	> 100 µM	> 100 µM	> 100 µM	> 100 µM	> 100 µM	> 100 µM	> 100 µM	57.5 µM	> 100 µM	18.2 µM	83.7 µM	> 100 µM	> 100 µM	> 100 µM	> 100 µM
O=C1CCC(N2C(=O)c3ccccc3C2=O)C(=O)N1 (centres undefined)		> 100 µM		> 100 µM		> 100 µM		> 100 µM	> 100 µM	> 100 µM		> 100 µM		> 100 µM			> 100 µM		> 100 µM	> 100 µM
c1cncc(CNCc2cccnc2)c1		> 100 µM		> 100 µM		> 100 µM		> 100 µM		> 100 µM		> 100 µM		> 100 µM			> 100 µM		> 100 µM	> 100 µM
CC1=Cc2ccc(C)cc2C(=O)C1=O		16.3 µM		42.3 µM		> 65.1 µM				59.6 µM		45.3 µM		43 µM			12.8 µM		21.8 µM	7.34 µM
CCCCCC[C@H](C)Nc1nc2ccccc2c2occc12	34.4 µM	> 100 µM	2.26 µM	7.04 µM	12.8 µM	37.7 µM			10.6 µM	24 µM	0.576 µM	7.23 µM	14.8 µM	35.5 µM	3.74 µM	11.2 µM	23.9 µM	14.8 µM	30.5 µM	44.3 µM
O=C([O][Sn]([O]C(=O)c1ccccn1)([c]1ccccc1)[c]1ccccc1)c1ccccn1	6.28 µM	19.4 µM	13.7 µM	26.9 µM	2.32 µM	8.88 µM	1.61 µM	3.49 µM	5.29 µM	18.4 µM	3.08 µM	12.8 µM	11.8 µM	25.6 µM	1.86 µM	13.8 µM	26.9 µM	2.54 µM	13 µM	6.13 µM
COc1cc2c(cc1OCCCCCCN1CCN(CC(=O)Nc3ccc(Cl)cc3C(=O)c3ccccc3Cl)CC1)N=CC1CCCN1C2=O (centres undefined)	0.154 µM	0.314 µM	0.477 µM	1.14 µM	0.243 µM	0.589 µM	0.185 µM	0.361 µM	0.383 µM	1.07 µM	0.198 µM	0.468 µM	0.308 µM	0.715 µM		0.298 µM	1.08 µM	0.169 µM	0.472 µM	
O=c1[nH]c2ccccc2n1CCCN1CCC(n2c(=O)[nH]c3cc(Cl)ccc32)CC1		27.9 µM		42.7 µM		49.7 µM		32 µM		37.4 µM		31.2 µM		43.9 µM			30.6 µM			57.8 µM
COc1cc(NC(=O)CCSc2nc3ccc(C)cc3c(=O)n2Cc2ccccc2)cc(OC)c1OC	> 100 µM	> 100 µM			2.18 µM	6.74 µM	4.73 µM	43.4 µM	4.2 µM	52.8 µM	26.6 µM	> 100 µM	5.39 µM	> 100 µM	> 100 µM	78 µM	> 100 µM	1.9 µM	4.78 µM	> 100 µM
COc1cc2c(cc1OC)C(=O)/C(=C/c1cc(-c3ccc4c(c3)OCO4)n[nH]1)C2	1.7 µM	3.11 µM			2.61 µM	8.08 µM	1.74 µM	3.6 µM	1.66 µM	3.2 µM	1.87 µM	3.91 µM	1.29 µM	2.92 µM	0.233 µM	1.59 µM	2.99 µM	1.65 µM	3.02 µM	0.623 µM
C1CC[N-]CC1.CC(=N\O)/C(C)=N/O.CC(=N\O)/C(C)=N/O.OC1[CH-]CCCC1.[Co+2]	19 µM	34.5 µM	31.1 µM	> 100 µM	22.8 µM	63 µM	18 µM	40.8 µM	> 100 µM	> 100 µM			36.6 µM	> 100 µM	42.4 µM	53.7 µM	> 100 µM	26.9 µM	> 100 µM	> 100 µM
